According to ChEMBL document CHEMBL2434967, “Synthesis, characterization, antiparasitic and cytotoxic evaluation of thioureas conjugated to polyamine scaffolds” (Eur J Med Chem, 2013):

What was measured:
[1] = Cytotoxicity against human WHCO1 cells after 48 hrs by MTT assay; assay type: functional, cell-based; details: WHCO1, 48 h
[2] = tested on: Trichomonas vaginalis; assay: Antimicrobial activity against Trichomonas vaginalis G3 assessed as growth inhibition at 10 uM after 24 hrs by hemocytometry; assay type: functional; details: G3, 24 h, read-out: GI
[3] = Inhibition of beta-hematin formation after overnight incubation by NP-40 detergent-mediated spectroscopic analysis; assay type: functional
[4] = tested on: Plasmodium falciparum; assay: Resistance index, ratio of IC50 for chloroquine-resistant Plasmodium falciparum Dd2 to IC50 for chloroquine-sensitive Plasmodium falciparum NF54; assay type: functional
[5] = tested on: Plasmodium falciparum; assay: Antiplasmodial activity against chloroquine-resistant erythrocyte stages of Plasmodium falciparum Dd2 by parasite lactate dehydrogenase assay; assay type: functional, organism-based
[6] = tested on: Plasmodium falciparum; assay: Antiplasmodial activity against chloroquine-sensitive erythrocyte stages of Plasmodium falciparum NF54 by parasite lactate dehydrogenase assay; assay type: functional, organism-based

CCCNC(=S)NCCCNc1ccnc2cc(Cl)ccc12 gave an IC50 [1] of 43800 nM, an inhibition of growth at 10 µM [2] of 34.9% and an IC50 [3] of 58200 nM. For the same molecule, the “Ratio IC50” value [4] was 1.6, the IC50 [5] was 260 nM and the IC50 [6] was 160 nM.
Work on S=C(NCCCNC(=S)NCCCNc1ccnc2cc(Cl)ccc12)NCCCNc1ccnc2cc(Cl)ccc12 yielded an IC50 [1] of 38400 nM, an inhibition of growth at 10 µM [2] of 55.9% and an IC50 [3] of 6520 nM. The “Ratio IC50” value [4] was 0.7, the IC50 [5] was 230 nM and the IC50 [6] was 340 nM.
S=C(NCCCNc1ccnc2cc(Cl)ccc12)NCCN(CCNC(=S)NCCCNc1ccnc2cc(Cl)ccc12)CCNC(=S)NCCCNc1ccnc2cc(Cl)ccc12 showed an IC50 [1] of 6210 nM, an inhibition of growth at 10 µM [2] of 51.4% and an IC50 [3] of 4480 nM. The “Ratio IC50” value [4] was 5.8, the IC50 [5] was 520 nM and the IC50 [6] was 90 nM.
Work on S=C(NCCCNc1ccnc2cc(Cl)ccc12)NCCCN(CCCCN(CCCNC(=S)NCCCNc1ccnc2cc(Cl)ccc12)CCCNC(=S)NCCCNc1ccnc2cc(Cl)ccc12)CCCNC(=S)NCCCNc1ccnc2cc(Cl)ccc12 yielded an IC50 [1] of 990 nM, an inhibition of growth at 10 µM [2] of 58.7% and an IC50 [3] of less than 4500 nM. The “Ratio IC50” value [4] was 2.5, the IC50 [5] was 510 nM and the IC50 [6] was 200 nM.
For CCN(CC)CCCC(C)Nc1ccnc2cc(Cl)ccc12 (stereo unspecified) [CHLOROQUINE], the IC50 [3] was 73800 nM.
In the case of Cc1ncc([N+](=O)[O-])n1CCO [METRONIDAZOLE], the inhibition of growth at 10 µM [2] is reported as 100%.
